Assay: Particle size distribution (D50, D90) of the polymorph
Format: physicochemical
Conditions: for Particle size D(0.9): D90; for Particle size D(0.5): median diameter D50
[1] = listed as Mesotrione copper chelate form II-a
[2] = listed as Mesotrione copper chelate form II-b
[3] = listed as Mesotrione copper chelate form I-a
[4] = listed as Mesotrione copper chelate form I-b

Substance	Particle size D(0.9) [1]	Particle size D(0.9) [2]	Particle size D(0.5) [1]	Particle size D(0.5) [2]	Particle size D(0.9) [3]	Particle size D(0.9) [4]	Particle size D(0.5) [3]	Particle size D(0.5) [4]
mesotrione copper chelate [Mesotrione copper chelate form II]	34.08 μm	27.33 μm	17.58 μm	16.74 μm				
mesotrione copper chelate [Mesotrione copper chelate form I]					13.02 μm	13.22 μm	7.94 μm	7.62 μm
